Reference: article PMC4716540 (British Journal of Cancer, 2015)

Test system: patients with confirmed relapsed/refractory MM, CLL, or NHL
Assay: Phase I safety and tolerability: adverse events, DLT, MTD, RP2D
Assay type: in vivo, human

CCc1c(O)cc(O)c(C(=O)c2ccc(OCCN3CCOCC3)c(OC)c2)c1CC(=O)N(CCOC)CCOC [KW-2478]
Number of treatment-related AEs per patient (average) (14 mg m^–2): 1.0 | AE (treatment-emergent) (14 mg m^–2 (n=3)): 3 (100.0) No. of patients (%) | Abdominal pain (any AE) (14 mg m^–2 (n=3)): 0 No. of patients (%) | Acne (any AE) (14 mg m^–2 (n=3)): 0 No. of patients (%) | Anaemia (any AE) (14 mg m^–2 (n=3)): 0 No. of patients (%) | Anorexia (any AE) (14 mg m^–2 (n=3)): 0 No. of patients (%) | Back pain (any AE) (14 mg m^–2 (n=3)): 1 (33.3) No. of patients (%) | Diarrhoea (any AE) (14 mg m^–2 (n=3)): 0 No. of patients (%) | Dizziness (any AE) (14 mg m^–2 (n=3)): 0 No. of patients (%) | Fatigue (any AE) (14 mg m^–2 (n=3)): 1 (33.3) No. of patients (%) | Haemoglobin decreased (any AE) (14 mg m^–2 (n=3)): 0 No. of patients (%) | Hair disorder (any AE) (14 mg m^–2 (n=3)): 0 No. of patients (%) | Headache (any AE) (14 mg m^–2 (n=3)): 1 (33.3) No. of patients (%) | Herpes simplex infection (any AE) (14 mg m^–2 (n=3)): 0 No. of patients (%) | Hypertension (any AE) (14 mg m^–2 (n=3)): 0 No. of patients (%) | LRTI (any AE) (14 mg m^–2 (n=3)): 0 No. of patients (%) | Musculoskeletal chest pain (any AE) (14 mg m^–2 (n=3)): 0 No. of patients (%) | Nausea (any AE) (14 mg m^–2 (n=3)): 1 (33.3) No. of patients (%) | Oral herpes (any AE) (14 mg m^–2 (n=3)): 0 No. of patients (%) | Rhinitis (any AE) (14 mg m^–2 (n=3)): 1 (33.3) No. of patients (%) | Serious AE (14 mg m^–2 (n=3)): 0 No. of patients (%) | Treatment-related AE (14 mg m^–2 (n=3)): 2 (66.7) No. of patients (%) | Vomiting (any AE) (14 mg m^–2 (n=3)): 0 No. of patients (%) | AE (treatment-emergent) (28 mg m^–2 (n=3)): 3 (100.0) No. of patients (%) | Abdominal pain (any AE) (28 mg m^–2 (n=3)): 0 No. of patients (%) | Acne (any AE) (28 mg m^–2 (n=3)): 1 (33.3) No. of patients (%) | Anaemia (any AE) (28 mg m^–2 (n=3)): 0 No. of patients (%) | Anorexia (any AE) (28 mg m^–2 (n=3)): 0 No. of patients (%) | Back pain (any AE) (28 mg m^–2 (n=3)): 1 (33.3) No. of patients (%) | Diarrhoea (any AE) (28 mg m^–2 (n=3)): 0 No. of patients (%) | Dizziness (any AE) (28 mg m^–2 (n=3)): 0 No. of patients (%) | Fatigue (any AE) (28 mg m^–2 (n=3)): 0 No. of patients (%) | Haemoglobin decreased (any AE) (28 mg m^–2 (n=3)): 0 No. of patients (%) | Hair disorder (any AE) (28 mg m^–2 (n=3)): 1 (33.3) No. of patients (%) | Headache (any AE) (28 mg m^–2 (n=3)): 0 No. of patients (%) | Herpes simplex infection (any AE) (28 mg m^–2 (n=3)): 1 (33.3) No. of patients (%) | Hypertension (any AE) (28 mg m^–2 (n=3)): 0 No. of patients (%) | LRTI (any AE) (28 mg m^–2 (n=3)): 0 No. of patients (%) | Musculoskeletal chest pain (any AE) (28 mg m^–2 (n=3)): 0 No. of patients (%) | Nausea (any AE) (28 mg m^–2 (n=3)): 1 (33.3) No. of patients (%) | Oral herpes (any AE) (28 mg m^–2 (n=3)): 1 (33.3) No. of patients (%) | Rhinitis (any AE) (28 mg m^–2 (n=3)): 1 (33.3) No. of patients (%) | Serious AE (28 mg m^–2 (n=3)): 0 No. of patients (%) | Treatment-related AE (28 mg m^–2 (n=3)): 2 (66.7) No. of patients (%) | Vomiting (any AE) (28 mg m^–2 (n=3)): 1 (33.3) No. of patients (%) | AE (treatment-emergent) (47 mg m^–2 (n=4)): 4 (100.0) No. of patients (%) | Abdominal pain (any AE) (47 mg m^–2 (n=4)): 0 No. of patients (%) | Acne (any AE) (47 mg m^–2 (n=4)): 1 (25.0) No. of patients (%) | Anaemia (any AE) (47 mg m^–2 (n=4)): 1 (25.0) No. of patients (%) | Anorexia (any AE) (47 mg m^–2 (n=4)): 0 No. of patients (%) | Back pain (any AE) (47 mg m^–2 (n=4)): 0 No. of patients (%) | Diarrhoea (any AE) (47 mg m^–2 (n=4)): 2 (50.0) No. of patients (%) | Dizziness (any AE) (47 mg m^–2 (n=4)): 0 No. of patients (%) | Fatigue (any AE) (47 mg m^–2 (n=4)): 0 No. of patients (%) | Haemoglobin decreased (any AE) (47 mg m^–2 (n=4)): 0 No. of patients (%) | Hair disorder (any AE) (47 mg m^–2 (n=4)): 1 (25.0) No. of patients (%) | Headache (any AE) (47 mg m^–2 (n=4)): 0 No. of patients (%) | Herpes simplex infection (any AE) (47 mg m^–2 (n=4)): 0 No. of patients (%) | Hypertension (any AE) (47 mg m^–2 (n=4)): 2 (50.0) No. of patients (%) | LRTI (any AE) (47 mg m^–2 (n=4)): 0 No. of patients (%) | Musculoskeletal chest pain (any AE) (47 mg m^–2 (n=4)): 0 No. of patients (%) | Nausea (any AE) (47 mg m^–2 (n=4)): 0 No. of patients (%) | Oral herpes (any AE) (47 mg m^–2 (n=4)): 0 No. of patients (%) | Rhinitis (any AE) (47 mg m^–2 (n=4)): 1 (25.0) No. of patients (%) | Serious AE (47 mg m^–2 (n=4)): 0 No. of patients (%) | Treatment-related AE (47 mg m^–2 (n=4)): 3 (75.0) No. of patients (%) | Vomiting (any AE) (47 mg m^–2 (n=4)): 1 (25.0) No. of patients (%) | AE (treatment-emergent) (71 mg m^–2 (n=4)): 4 (100.0) No. of patients (%) | Abdominal pain (any AE) (71 mg m^–2 (n=4)): 0 No. of patients (%) | Acne (any AE) (71 mg m^–2 (n=4)): 1 (25.0) No. of patients (%) | Anaemia (any AE) (71 mg m^–2 (n=4)): 0 No. of patients (%) | Anorexia (any AE) (71 mg m^–2 (n=4)): 0 No. of patients (%) | Back pain (any AE) (71 mg m^–2 (n=4)): 0 No. of patients (%) | Diarrhoea (any AE) (71 mg m^–2 (n=4)): 2 (50.0) No. of patients (%) | Dizziness (any AE) (71 mg m^–2 (n=4)): 2 (50.0) No. of patients (%) | Fatigue (any AE) (71 mg m^–2 (n=4)): 1 (25.0) No. of patients (%) | Haemoglobin decreased (any AE) (71 mg m^–2 (n=4)): 1 (25.0) No. of patients (%) | Hair disorder (any AE) (71 mg m^–2 (n=4)): 1 (25.0) No. of patients (%) | Headache (any AE) (71 mg m^–2 (n=4)): 2 (50.0) No. of patients (%) | Herpes simplex infection (any AE) (71 mg m^–2 (n=4)): 1 (25.0) No. of patients (%) | Hypertension (any AE) (71 mg m^–2 (n=4)): 2 (50.0) No. of patients (%) | LRTI (any AE) (71 mg m^–2 (n=4)): 1 (25.0) No. of patients (%) | Musculoskeletal chest pain (any AE) (71 mg m^–2 (n=4)): 0 No. of patients (%) | Nausea (any AE) (71 mg m^–2 (n=4)): 2 (50.0) No. of patients (%) | Oral herpes (any AE) (71 mg m^–2 (n=4)): 1 (25.0) No. of patients (%) | Rhinitis (any AE) (71 mg m^–2 (n=4)): 1 (25.0) No. of patients (%) | Serious AE (71 mg m^–2 (n=4)): 2 (50) No. of patients (%) | Treatment-related AE (71 mg m^–2 (n=4)): 4 (100.0) No. of patients (%) | Death (71 mg m^–2 (n=4), considered unrelated to medication): 1 (25) No. of patients (%) | AE (treatment-emergent) (99 mg m^–2 (n=4)): 4 (100.0) No. of patients (%)
